From patent US7868135B2, “Compositions of lipopeptide antibiotic derivatives and methods of use thereof” (priority 2003, dated 2011)
Starred links: 1 amine or outer side, 2 acyl side, 3 side chain; linkers in the order of their positions; H or OH if unused. Positions of bridges follow the written chain, without caps; N, C: chain ends. Non-standard residues stand in square brackets, D forms with d. Residues, ends and D or L forms follow the SMILES beside them. ξ: configuration not given here. *: point of attachment. X30 = CC(NC(=O)Cc1ccc(N)cc1)C(N[*:1])C(=O)[*:2]; X34 = CCCCCC(=O)Nc1cc(NC(=O)CCCCC)cc(C(=O)*)c1; X29 = COCCOCCOCC(=O)NC(C)C(N[*:1])C(=O)[*:2]; ξAbu(βξ-NH2) = CC(N[*:3])C(N[*:1])C(=O)[*:2]; X26 = COC(=O)CC(=O)NC(C)C(N[*:1])C(=O)[*:2]; X7 = CC(NC(=O)C1CCNCC1)C(N[*:1])C(=O)[*:2]; Pentadecanoyl = CCCCCCCCCCCCCCC(=O)*; ξAsp(βξ-Me) = CC(C(=O)O)C(N)C(=O)O; X27 = CCCCCCCC/C=C/CCCCCCCC(=O)*; X13 = O=C(CCCCCCCCCCOc1ccccc1)*; ξAbu(3ξ-NH2) = CC(N)C(N)C(=O)O; NH(CH2)11CH3 = CCCCCCCCCCCCN*; X32 = CC(C)CCCCCC/C=C\C(=O)*; Lauroyl = CCCCCCCCCCCC(=O)*; 3Abz = Nc1cccc(C(=O)O)c1; Pip = O=C(O)[CH]1CCCCN1; CO = O=C([*:1])[*:2]

test system: Staphylococcus aureus (MSSA); details: 24 h
In short: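 Broth microdilution MIC per NCCLS M7-A6 with doubling serial dilutions, in cation-adjusted Mueller-Hinton broth supplemented with 0.625 mM calcium.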

For `CCCCCCCCCCCCCCC(=O)NC(CC(=O)O)C(=O)NC1C(=O)N2CCCCC2C(=O)NC(C(C)C(=O)O)C(=O)NC(CC(=O)O)C(=O)NCC(=O)NC(CC(=O)O)C(=O)NCC(=O)NC(C(C)NC(=O)CC(=O)OC)C(=O)NC(C(C)C)C(=O)N2CCCC2C(=O)NC1C` (stereo not drawn) [Compound 231] (Pentadecanoyl-D[ξAbu(βξ-NH2)][Pip][ξAsp(βξ-Me)]DGDG[X26]VP; lactam 2-C; configuration not given here), which MIC is on record?
Its MIC is 8 µg/mL.

For `CCCCCCCC(=O)N(C)CC(=O)NC(CC(=O)O)C(=O)NC1C(=O)N2CCCCC2C(=O)NC(C(C)C(=O)O)C(=O)NC(CC(=O)O)C(=O)NCC(=O)NC(CC(=O)O)C(=O)NCC(=O)NC(C(C)N)C(=O)NC(C(C)C)C(=O)N2CCCC2C(=O)NC1C` (stereo not shown) [Compound 346, C8-Sar-Amphomycin], which MIC is on record?
The MIC was >64 µg/mL.

For `CC(C)C1NC(=O)C(C(C)N)NC(=O)CNC(=O)C(CC(=O)O)NC(=O)CNC(=O)C(CC(=O)O)NC(=O)C(C(C)C(=O)O)NC(=O)C2CCCCN2C(=O)C(NC(=O)C(CC(=O)O)NC(=O)CCCCCCCCCCOc2ccccc2)C(C)NC(=O)C2CCCN2C1=O` (stereo not drawn) [Compound 333, (11-(Phenoxy)Undecanoyl)-Amphomycin] (X13-D[ξAbu(βξ-NH2)][Pip][ξAsp(βξ-Me)]DGDG[ξAbu(3ξ-NH2)]VP; lactam 2-C; configuration not given here), which MIC is on record?
The MIC was 1 µg/mL.

For `CCCCCCCC/C=C/CCCCCCCC(=O)NC(C)C1NC(=O)CNC(=O)C(CC(=O)O)NC(=O)CNC(=O)C(CC(=O)O)NC(=O)C(C(C)C(=O)O)NC(=O)C2CCCCN2C(=O)C(NC(=O)C(CC(=O)O)NC(=O)CCCCCCCCCCCCCC)C(C)NC(=O)C2CCCN2C(=O)C(C(C)C)NC1=O` (stereo not drawn) [Compound 238, C15-Amphomycin-9-Oleate] (Pentadecanoyl-D[ξAbu(βξ-NH2)][Pip][ξAsp(βξ-Me)]DGDG[ξAbu(βξ-NH2)](X27)VP; lactam 2-C; configuration not given here), which MIC is on record?
The MIC was 1 to 2 µg/mL.

With `CCCCCCCCCCCCCCC(=O)NC(CC(=O)O)C(=O)NC1C(=O)N2CCCCC2C(=O)NC(C(C)C(=O)O)C(=O)NC(CC(=O)O)C(=O)NCC(=O)NC(CC(=O)O)C(=O)NCC(=O)NC(C(C)NC(=O)Cc2ccc(N)cc2)C(=O)NC(C(C)C)C(=O)N2CCCC2C(=O)NC1C` (stereo not drawn) [Compound 168, C15-Amphomycin-9-(p-Apa)] (Pentadecanoyl-D[ξAbu(βξ-NH2)][Pip][ξAsp(βξ-Me)]DGDG[X30]VP; lactam 2-C; configuration not given here) as the molecule, how does the MIC read?
The MIC was 32 to 64 µg/mL.

`CCCCCCCCCCCCCCC(=O)NC(CC(=O)O)C(=O)NC1C(=O)N2CCCCC2C(=O)NC(C(C)C(=O)O)C(=O)NC(CC(=O)O)C(=O)NCC(=O)NC(CC(=O)O)C(=O)NCC(=O)NC(C(C)NC(=O)CCCNC(=O)[C@@H](N)CCCCN)C(=O)NC(C(C)C)C(=O)N2CCCC2C(=O)NC1C` (stereo partly shown) [Compound 156, C15-Amphomycin-9-GABA-Lys] was tested. Which MIC did it give?
Its MIC is 1 µg/mL.

`CCCCCC(=O)Nc1cc(NC(=O)CCCCC)cc(C(=O)NC(CC(=O)O)C(=O)NC2C(=O)N3CCCCC3C(=O)NC(C(C)C(=O)O)C(=O)NC(CC(=O)O)C(=O)NCC(=O)NC(CC(=O)O)C(=O)NCC(=O)NC(C(C)N)C(=O)NC(C(C)C)C(=O)N3CCCC3C(=O)NC2C)c1` (stereo not drawn) [Compound 319, N,N′-di-C6-(M,M-Diaminobenzoyl)-Amphomycin] (X34-D[ξAbu(βξ-NH2)][Pip][ξAsp(βξ-Me)]DGDG[ξAbu(3ξ-NH2)]VP; lactam 2-C; configuration not given here) was tested. Which MIC did it give?
Its MIC is 64 µg/mL.

`CCCCCCCCCCCNC(=O)NCCCC(=O)NC(CC(=O)O)C(=O)NC1C(=O)N2CCCCC2C(=O)NC(C(C)C(=O)O)C(=O)NC(CC(=O)O)C(=O)NCC(=O)NC(CC(=O)O)C(=O)NCC(=O)NC(C(C)N)C(=O)NC(C(C)C)C(=O)N2CCCC2C(=O)NC1C` (stereo not shown) [Compound 304, CH3—(CH2)10—NH—C(═O)-GABA-Amphomycin] was tested. Which MIC did it give?
The MIC was 4 µg/mL.

Which MIC does the source give for `CCCCCCCCCCCCNC(=O)NCC(=O)NC(CC(=O)O)C(=O)NC1C(=O)N2CCCCC2C(=O)NC(C(C)C(=O)O)C(=O)NC(CC(=O)O)C(=O)NCC(=O)NC(CC(=O)O)C(=O)NCC(=O)NC(C(C)N)C(=O)NC(C(C)C)C(=O)N2CCCC2C(=O)NC1C` (stereo not drawn) [Compound 254, CH3—(CH2)11—NH—C(═O)-Gly-Amphomycin] ({NH(CH2)11CH3-CO}-GD[ξAbu(βξ-NH2)][Pip][ξAsp(βξ-Me)]DGDG[ξAbu(3ξ-NH2)]VP; lactam 3-C; configuration not given here) here?
Its MIC is 2 to 4 µg/mL.

For `CCCCCCCCCCCC(=O)Nc1cccc(C(=O)NC(CC(=O)O)C(=O)NC2C(=O)N3CCCCC3C(=O)NC(C(C)C(=O)O)C(=O)NC(CC(=O)O)C(=O)NCC(=O)NC(CC(=O)O)C(=O)NCC(=O)NC(C(C)N)C(=O)NC(C(C)C)C(=O)N3CCCC3C(=O)NC2C)c1` (stereo not drawn) [Compound 296, C12-(M-Aminobenzoyl)-Amphomycin] ({Lauroyl-3Abz}-D[ξAbu(βξ-NH2)][Pip][ξAsp(βξ-Me)]DGDG[ξAbu(3ξ-NH2)]VP; lactam 2-C; configuration not given here), which MIC is on record?
The MIC was 0.25 µg/mL.

For `CCCCCCCCCCCCCCC(=O)NC(CC(=O)O)C(=O)NC1C(=O)N2CCCCC2C(=O)NC(C(C)C(=O)O)C(=O)NC(CC(=O)O)C(=O)NCC(=O)NC(CC(=O)O)C(=O)NCC(=O)NC(C(C)NC(=O)CNC(=O)[C@@H](N)CCCCCN)C(=O)NC(C(C)C)C(=O)N2CCCC2C(=O)NC1C` (stereo partly shown) [Compound 158, C15-Amphomycin-9-Gly-hLys], which MIC is on record?
Its MIC is 1 to 2 µg/mL.

For `CCCCCCCCCCCCCCC(=O)NC(CC(=O)O)C(=O)NC1C(=O)N2CCCCC2C(=O)NC(C(C)C(=O)O)C(=O)NC(CC(=O)O)C(=O)NCC(=O)NC(CC(=O)O)C(=O)NCC(=O)NC(C(C)NC(=O)CN(C)C(=O)[C@@H](N)CN)C(=O)NC(C(C)C)C(=O)N2CCCC2C(=O)NC1C` (stereo partly shown) [Compound 146, C15-Amphomycin-9-Sar-Dap], which MIC is on record?
Its MIC is 2 µg/mL.

Which MIC does the source give for `CC(C)CCCCCC/C=C\C(=O)NC(CC(=O)O)C(=O)NC1C(=O)N2CCCCC2C(=O)NC(C(C)C(=O)O)C(=O)NC(CC(=O)O)C(=O)NCC(=O)NC(CC(=O)O)C(=O)NCC(=O)NC(C(C)N)C(=O)NC(C(C)C)C(=O)N2CCCC2C(=O)NC1C` (stereo not drawn) [Compound 364, (10-Methyl-Undec-2-Enoyl)-Amphomycin] (X32-D[ξAbu(βξ-NH2)][Pip][ξAsp(βξ-Me)]DGDG[ξAbu(3ξ-NH2)]VP; lactam 2-C; configuration not given here) here?
The MIC was 4 to 8 µg/mL.

Which MIC does the source give for `CCCCCCCCCCCCCCC(=O)NC(CC(=O)O)C(=O)NC1C(=O)N2CCCCC2C(=O)NC(C(C)C(=O)O)C(=O)NC(CC(=O)O)C(=O)NCC(=O)NC(CC(=O)O)C(=O)NCC(=O)NC(C(C)NC(=O)C2CCNCC2)C(=O)NC(C(C)C)C(=O)N2CCCC2C(=O)NC1C` (stereo not drawn) [Compound 26, C15-Amphomycin-9-Ina] (Pentadecanoyl-D[ξAbu(βξ-NH2)][Pip][ξAsp(βξ-Me)]DGDG[X7]VP; lactam 2-C; configuration not given here) here?
The MIC was 4 µg/mL.

With `CCCCCCCCCCCCCCC(=O)NC(CC(=O)O)C(=O)NC1C(=O)N2CCCCC2C(=O)NC(C(C)C(=O)O)C(=O)NC(CC(=O)O)C(=O)NCC(=O)NC(CC(=O)O)C(=O)NCC(=O)NC(C(C)NC(=O)COCCOCCOC)C(=O)NC(C(C)C)C(=O)N2CCCC2C(=O)NC1C` (stereo not drawn) [Compound 343, C15-Amphomycin-9-([2-(2-Methoxy-Ethoxy)-Ethoxy]-Acetyl)] (Pentadecanoyl-D[ξAbu(βξ-NH2)][Pip][ξAsp(βξ-Me)]DGDG[X29]VP; lactam 2-C; configuration not given here) as the molecule, how does the MIC read?
The MIC was 64 µg/mL.

same assay, conditions: S. aureus (MSSA), CAMHB supplemented with 0.625 mM calcium, 24 hours at about 37° C.; a range = compound tested multiple times

Which MIC does the source give for “C15-Amphomycin-9-(Carbamoyl-Leu) [Compound 204]” here?
Its MIC is 16 µg/mL.
